Results as given in patent publication US20070105788A1, “Azithromycin for treatment of granulomatous rosacea” (priority 2005, published 2007).

Test system: granulomatous rosacea
Experiment: Case reports: treatment of patients with granulomatous rosacea
Type: in vivo, human
Conditions: for clinical response of granulomatous rosacea at follow-up: two months later
Protocol: A patient presented with severe inflammatory diffuse facial granulomatous rosacea. The condition had been present for 6 years.
They were started on oral azithromycin 500 mg daily dose together with an estrogenic hormone, norgestimate/ethinyl estradiol (ORTHO TRI-CYCLEN®, Ortho-McNeil Pharmaceutical, Raritan, N.J.). […] Treatment was continued with a follow-up examination expected in another 6 to 8 weeks.
A patient presented with complaints of a “facial rash”. […] They were started on oral cephalexin. […] Treatment with dicloxicillin was initiated.
Oral azithromycin at a dosage of 500 mg daily was started, together with daily topical application of a sodium sulfacetamide 10% with sulfur 5% cream and a metronidazole cream.
A person presented with a facial rash.
Treatment was initiated with a variety of topical medications, including metronidazole gel, Elidel® (pimecrolimus, Novartis Pharmaceuticals Corp., New York, N.Y.), 2.4% hydrocortisone, and desonide cream.
The next therapy tried was oral doxycycline 100 mg twice daily. […] The patient was then started on Accutane® (Hoffman-LaRoche Inc., Nutley, N.J.) at an initial dosage of 20 mg per day, which was subsequently raised to 40 mg per day and then to 60 mg per day.
Treatment was subsequently initiated with azithromycin as the sole therapy, administered orally at a dosage of 250 mg daily for three weeks.

What does the source list for CC[C@H]1OC(=O)[C@H](C)[C@@H](O[C@H]2C[C@@](C)(OC)[C@@H](O)[C@H](C)O2)[C@H](C)[C@@H](O[C@@H]2O[C@H](C)C[C@H](N(C)C)[C@H]2O)[C@](C)(O)C[C@@H](C)CN(C)[C@H](C)[C@@H](O)[C@]1(C)O [azithromycin]?
clinical response of granulomatous rosacea at follow-up (Example 1, azithromycin reduced to 500 mg every other day plus daily topical azaleic acid): remained clear; clinical response of granulomatous rosacea (Example 1, oral azithromycin 500 mg daily together with norgestimate/ethinyl estradiol, 9 weeks after initiation): greatly improved with only minimal residual facial erythema and no residual inflammatory lesions; clinical response of granulomatous rosacea at follow-up (Example 2, azithromycin decreased to 500 mg every other day, topicals continued): no evidence of residual rosacea; clinical response of granulomatous rosacea (Example 2, oral azithromycin 500 mg daily with topical sodium sulfacetamide 10%/sulfur 5% cream and metronidazole cream, six weeks after initiation): minimally perceptible residual erythema and papulation; clinical response of granulomatous rosacea (Example 3, azithromycin as sole therapy, orally 250 mg daily for three weeks): remarkable improvement; recurrence of granulomatous rosacea (Example 3, following cessation of azithromycin therapy (250 mg daily for three weeks)): has not had a recurrence; efficacy on signs and symptoms of granulomatous rosacea (general statement) (administered systemically for a period of several weeks or more): effective

CC1=C(C(=O)O)N2C(=O)[C@@H](NC(=O)[C@H](N)c3ccccc3)[C@H]2SC1 [cephalexin] was tested. Which “clinical response of facial rash (later diagnosed granulomatous rosacea)” value (Example 2, patient, oral cephalexin, one month later) did it give?
The value was “worsening pustules and tender nodules”.

For Cc1onc(-c2c(Cl)cccc2Cl)c1C(=O)N[C@@H]1C(=O)N2[C@@H]1SC(C)(C)[C@@H]2C(=O)O [dicloxicillin], which “clinical response of facial rash (later diagnosed granulomatous rosacea)” value (Example 2, dicloxicillin, six weeks later) is on record?
Its value is “persistent severe to worsening involvement”.
